For orientation: EC50 means the midpoint of the concentration-response curve. A higher EC50 goes with lower potency in that assay.

The record followed here is patent US4755526A, “Method of inhibiting aromatase” (Eli Lilly and Company, priority 1984, dated 1988).

Experiment [1] addresses T1, aromatase (Rattus norvegicus, UniProt P22443).
T1 construct: ovarian microsomes are obtained from rats treated with pregnant mares serum gonadotropin; from tissue; host or cells: ovarian microsomes of rats treated with pregnant mares serum gonadotropin
T1 sequence (P22443 1-508): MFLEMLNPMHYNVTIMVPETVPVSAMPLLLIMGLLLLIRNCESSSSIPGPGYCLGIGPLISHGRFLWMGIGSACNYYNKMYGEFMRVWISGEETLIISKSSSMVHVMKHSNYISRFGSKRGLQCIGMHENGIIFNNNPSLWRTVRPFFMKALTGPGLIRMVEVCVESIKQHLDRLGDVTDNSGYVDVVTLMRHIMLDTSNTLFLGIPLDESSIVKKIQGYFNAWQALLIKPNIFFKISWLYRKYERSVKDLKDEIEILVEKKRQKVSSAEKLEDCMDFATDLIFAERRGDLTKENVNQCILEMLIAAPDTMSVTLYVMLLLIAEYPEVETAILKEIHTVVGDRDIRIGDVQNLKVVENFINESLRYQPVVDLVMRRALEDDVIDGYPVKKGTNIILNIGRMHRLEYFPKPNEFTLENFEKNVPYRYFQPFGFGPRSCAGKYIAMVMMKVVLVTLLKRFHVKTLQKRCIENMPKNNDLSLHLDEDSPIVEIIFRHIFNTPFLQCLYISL
The experiment in a line: Aromatase inhibition in the rat ovarian microsome assay. It counts as biochemical. Particulars: EC50: concentration required to achieve 50% inhibition of aromatase activity, substrate (androstenedione) concentration 0.1 μM.
Experimental: In this test system, ovarian microsomes are obtained from rats treated with pregnant mares serum gonadotropin. Test compounds are added to reaction vials containing 0.1 μM 4-androstene-3,17-dione, 100,000 dpm 1,2[^3 H]-androstenedione, the microsomes and a NADPH generating system. The concentrations of the inhibitors tested ranged between 0.005 and 10 μM.

For experiment [2], the system named is estrogen synthesis. The experiment in a line: Estrogen synthesis inhibition in rats (uterine weight and ovarian steroid concentrations). The class given is in vivo, female Wistar rats. The conditions noted are these: for Mean Steroid Concentration, estradiol / Mean Steroid Concentration, estriol / Mean Steroid Concentration, estrone: ovaries; for Mean Uterine Weight: testosterone propionate-treated rats.
Experimental: Test compounds were administered for seven days either daily by gavage in corn oil or as a component of the diet. Control animals received either corn oil or diet without the test compound. Beginning on the fourth day of the test, all animals treated with the test compound and one half of the control animals were given a subcutaneous injection of 1.0 mg of testosterone propionate in corn oil. The remaining control animals received only an equivalent volume of corn oil.
After two hours, the animals were killed by decapitation. Uteri were isolated, trimmed of extraneous connective tissue, and weighed. […] In the control animals treated with testosterone propionate, estrogens produced by aromatization stimulated the uterus resulting in an increase in weight.
The ovarian steroids were extracted with 1.5 ml of 9:1 (v/v) toluene/ethanol to which had been added 25 to 100 mcg each of unlabelled estradiol, estriol, and estrone, and approximately 1000 dpm of [^14 C]-estradiol. The samples were vortexed, centrifuged at 500×g for 10 minutes, and the organic phase was transferred to a conical vial. Two additional extractions were performed on the residue in the same way. The pooled organic extracts were evaporated for subsequent thin-layer chromatography.
Ovarian proteins were precipitated by the addition of 5.0 ml of ethanol to the remaining aqueous phase. After an overnight incubation at 4° C., the samples were centrifuged at 1500×g for 10 minutes. The supernatant was discarded, and the pellet was dissolved in 0.3N potassium hydroxide.
The organic residue from each above extraction was redissolved in 9:1 (v/v) dichloromethane/methanol. The solution of each sample was applied to separate silica gel thin layer chromatography plates which contained a fluorescent indicator. The plates were developed in the first dimension with 160:38:1.5:0.5 (v/v/v/v) dichloromethane/ethyl acetate/methanol/acetic acid to within 3 cm of the top of the plate. After air-drying, the plate was developed in the second dimension with 180:19:1 (v/v/v) dichloromethane/methanol/ammonium hydroxide. The plate was air-dried and viewed under 254 nm UV light.
The visible spots were marked and the plates were sprayed with primulin (0.001% in 4:1 v/v acetone/water) according to the method of Wright, J. Chromatography, 59, 220 (1971) which allowed for the identification of additional steroids under 365 nm UV light. The spots were scraped from the plate using a glass wool plugged Pasteur pipet attached to a vacuum line. The steroids were eluted directly into scintillation vials by the addition of 0.2 ml of dichloromethane followed by two washes each of 2.0 ml of methanol. The organic solvent was evaporated and 10.0 ml of scintillation fluid (Beckman Ready Solv-NA) was added to the vials. Samples were analyzed by liquid scintillation spectrometry. Corrections were made based on the recoveries of the [^14 C]-steroid. Steroid concentrations are expressed as femtomoles per milligram protein.

Setting [3] is: 30 ppm in feed (approximately 3 mg/kg/day).
Where [4] appears, read: 300 ppm in feed (approximately 30 mg/kg/day).
Where [5] appears, read: 200 ppm in feed (approximately 20 mg/kg/day).

The structures appear in SMILES notation. Where a name gives a salt, the structure may show the parent alone. Bounds are passed on as bounds.

Take `C#CC(c1ccccc1)(c1ccccc1)n1ccnc1` [1-(1,1-diphenyl-2-propynyl)-1H--imidazole]: in experiment [1], the EC50 was determined as 0.018 µM. In addition, in experiment [2] (setting [3]), the “Mean Steroid Concentration, estradiol” value was 1.05 femtomoles per milligram of protein; the “Mean Steroid Concentration, estriol” value is 1.06 femtomoles per milligram of protein; the “Mean Steroid Concentration, estrone” value is 0.00 femtomoles per milligram of protein; the “Mean Uterine Weight” value is on record as 212.3 mg. Besides, in experiment [2] (setting [4]), the “Mean Steroid Concentration, estradiol” value was 1.01 femtomoles per milligram of protein; the “Mean Steroid Concentration, estriol” value was 0.60 femtomoles per milligram of protein; the “Mean Steroid Concentration, estrone” value is given as 0.00 femtomoles per milligram of protein; the “Mean Uterine Weight” value is recorded as 137.6 mg.

On to `Clc1ccc(COc2ccccc2Cn2ccnc2)c(Cl)c1` [1-[(2-[2,4-dichlorobenzyloxy]phenyl)methyl]-1H--imidazole nitrate], for which the half-maximal effective concentration (EC50) in experiment [1] came out at 0.068 µM. Moreover, in experiment [2] (setting [3]), the “Mean Steroid Concentration, estradiol” value was 1.16 femtomoles per milligram of protein; the “Mean Steroid Concentration, estriol” value is given as 0.33 femtomoles per milligram of protein; the “Mean Steroid Concentration, estrone” value was 0.31 femtomoles per milligram of protein; the “Mean Uterine Weight” value is 173.5 mg. Moreover, in experiment [2] (setting [4]), the “Mean Steroid Concentration, estradiol” value is 1.97 femtomoles per milligram of protein; the “Mean Steroid Concentration, estriol” value is listed as 0.34 femtomoles per milligram of protein; the “Mean Steroid Concentration, estrone” value is recorded as 0.30 femtomoles per milligram of protein; the “Mean Uterine Weight” value is 151.4 mg.

In the case of `Cc1nccn1C(c1ccccc1)(c1ccccc1)c1ccc(Cl)cc1` [1-[(4-chlorophenyl)diphenylmethyl]-2-methyl-1H--imidazole], the EC50 in experiment [1] was 0.08 µM.

In experiment [1], `Clc1cccc(Cl)c1COc1ccccc1Cn1ccnc1` [1-[(2-[2,6-dichlorobenzyloxy]phenyl)methyl]-1H--imidazole nitrate] showed an EC50 of 0.125 µM.

Regarding `Clc1ccc(C(c2ccccc2)(c2ccc(Cl)cc2)n2ccnc2)cc1` [1-[bis(4-chlorophenyl)phenylmethyl]-1H--imidazole], the EC50 in experiment [1] is 0.11 µM.

Turning to `Clc1ccccc1C(c1ccccc1Cl)n1cncn1` [1-[bis(2-chlorophenyl)methyl]-1H--1,2,4-triazole], the 50% effective concentration (EC50) in experiment [1] was > 5 µM.

In the case of `CCOc1ccccc1C(CC)n1ccnc1` (centres unmarked) [1-[1-(2-ethoxyphenyl)propyl]-1H--imidazole nitrate], the EC50 in experiment [1] came to 0.14 µM.

Take `Clc1ccc(Cn2cncn2)cc1` [1-(4-chlorobenzyl)-1H--1,2,4-triazole]: the 50% effective concentration (EC50) in experiment [1] is > 5 µM.

As to `Fc1ccccc1Cn1ccnc1` [1-[(2-fluorophenyl)methyl]-1H--imidazole nitrate], in experiment [1], a half-maximal response (EC50) required 2.65 µM.

Regarding `Fc1ccc(C(c2ccc(Cl)cc2)n2cncn2)cc1` (centres unmarked) [1-[(4-chlorophenyl)(4-fluorophenyl)methyl]-1H--1,2,4-triazole], in experiment [1], the 50% effective concentration (EC50) is < 0.05 µM.

Take `COc1ccc(C(c2ccccc2)(c2ccc(OC)cc2)n2cncn2)cc1` [1-[bis(4-methoxyphenyl)phenylmethyl]-1H--1,2,4-triazole]: a half-maximal response in experiment [1] (EC50) required 0.24 µM.

Take `CCOc1ccccc1C(c1ccccc1)n1ccnc1` (centres unmarked) [1-[(2-ethoxyphenyl)phenylmethyl]-1H--imidazole nitrate]: the concentration for a half-maximal effect (EC50) in experiment [1] is 0.1 µM.

As to `Fc1ccc(C(c2ccc(Cl)cc2)n2cnnc2)cc1` (centres unmarked) [4-[(4-chlorophenyl)(4-fluorophenyl)methyl]-4H--1,2,4-triazole], the half-maximal effective concentration (EC50) in experiment [1] was found to be 0.08 µM.

Take `Clc1ccc(Cl)c(Cn2ccnc2)c1` [1-[(2,5-dichlorophenyl)methyl]-1H--imidazole hydrochloride]: in experiment [1], the EC50 was determined as 0.16 µM.

On to `FC(F)(F)c1cccc(C(c2ccc(Cl)cc2)(c2cccnc2)n2ccnc2)c1` (centres unmarked) [3-[(4-chlorophenyl)-1H--imidazol-1-yl-(3-trifluoromethylphenyl)methyl]pyridine], for which the EC50 in experiment [1] is < 0.05 µM. Further, in experiment [2] (setting [5]), the “Mean Steroid Concentration, estradiol” value was 0.70 femtomoles per milligram of protein; the “Mean Steroid Concentration, estriol” value is given as 0.27 femtomoles per milligram of protein; the “Mean Steroid Concentration, estrone” value is given as 0.06 femtomoles per milligram of protein; the “Mean Uterine Weight” value amounted to 122.6 mg.

Consider `Clc1ccccc1Cn1ccnc1` [1-(2-chlorobenzyl)imidazole hydrochloride], for which the midpoint of the response in experiment [1], the EC50, lay at 3.5 µM.

Turning to `COc1cccc(Cn2ccnc2)c1` [1-[(3-methoxyphenyl)methyl]-1H--imidazole ethanedioate], the concentration for a half-maximal effect (EC50) in experiment [1] came out at 1.25 µM.

Regarding `Clc1ccc(C(c2ccccc2)n2cncn2)cc1` (centres unmarked) [1-[(4-chlorophenyl)phenylmethyl]-1H--1,2,4-triazole], the 50% effective concentration (EC50) in experiment [1] worked out at 0.15 µM.

In experiment [1], `c1ccc(C(c2ccccc2)(c2ccncc2)n2ccnc2)cc1` [4-(1H--imidazol-1-yl-diphenylmethyl)pyridine] showed a 50% effective concentration (EC50) of 0.012 µM. Moreover, in experiment [2] (setting [3]), the “Mean Steroid Concentration, estradiol” value is on record as 0.78 femtomoles per milligram of protein; the “Mean Steroid Concentration, estriol” value is reported as 0.35 femtomoles per milligram of protein; the “Mean Steroid Concentration, estrone” value is listed as 0.25 femtomoles per milligram of protein; the “Mean Uterine Weight” value is reported as 156.0 mg. In addition, in experiment [2] (setting [4]), the “Mean Steroid Concentration, estradiol” value was 0.61 femtomoles per milligram of protein; the “Mean Steroid Concentration, estriol” value was 0.29 femtomoles per milligram of protein; the “Mean Steroid Concentration, estrone” value is 0.23 femtomoles per milligram of protein; the “Mean Uterine Weight” value was 110.8 mg.

In experiment [1], `FC(F)(F)c1ccccc1Cn1ccnc1` [1-[(2-trifluoromethylphenyl)methyl]-1H--imidazole hydrochloride] displayed an EC50 of 1.75 µM.

In experiment [1], `CC(c1ccccc1)n1ccnc1` (centres unmarked) [1-(1-phenylethyl)-1H--imidazole hydrochloride] gave a 50% effective concentration (EC50) of 1.05 µM.

In turn, `CCCC(c1ccccc1OCc1ccc(Cl)cc1Cl)n1ccnc1` (centres unmarked) [1-[1-(2-[2,4-dichlorobenzyloxy]phenyl)butyl]-1H--imidazole nitrate] registered an EC50 in experiment [1] of 0.125 µM.

Regarding `Clc1cccc(Cl)c1Cn1ccnc1` [1-[(2,6-dichlorophenyl)methyl]-1H--imidazole hydrochloride], the EC50 in experiment [1] was > 5 µM.

Consider `Clc1ccc(Cn2ccnc2)c(Cl)c1` [1-[(2,4-dichlorophenyl)methyl]-1H--imidazole hydrochloride], for which a half-maximal response in experiment [1] (EC50) required 0.73 µM.

In experiment [1], `O=[N+]([O-])c1cccc(Cn2ccnc2)c1` [1-[(3-nitrophenyl)methyl]-1H--imidazole hydrochloride] gave an EC50 of 1.13 µM.

With `c1ccc(C2(n3ccnc3)CCCCC2)cc1` [1-(1-phenylcyclohexyl)-1H--imidazole], a half-maximal response in experiment [1] (EC50) required 0.093 µM.

Regarding `C=C(c1ccccc1OCc1cccc(Cl)c1)n1ccnc1` [1-[1-(2-[(3-chlorophenyl)methoxy]phenyl)ethenyl]-1H--imidazole hydrochloride], in experiment [1], the half-maximal effective concentration (EC50) was determined as 0.165 µM.

For the molecule `Clc1ccc(C(c2ccc(Cl)cc2)(c2cccnc2)n2cncn2)cc1` [3-[bis(4-chlorophenyl)-1H--1,2,4-triazol-1-ylmethyl]pyridine], in experiment [1], the EC50 was found to be 0.06 µM. Also, in experiment [2] (setting [3]), the “Mean Steroid Concentration, estradiol” value is reported as 1.83 femtomoles per milligram of protein; the “Mean Steroid Concentration, estriol” value is listed as 0.36 femtomoles per milligram of protein; the “Mean Steroid Concentration, estrone” value is given as 0.06 femtomoles per milligram of protein; the “Mean Uterine Weight” value is 150.8 mg. In addition, in experiment [2] (setting [4]), the “Mean Steroid Concentration, estradiol” value is listed as 1.18 femtomoles per milligram of protein; the “Mean Steroid Concentration, estriol” value is 0.13 femtomoles per milligram of protein; the “Mean Steroid Concentration, estrone” value is listed as 0.06 femtomoles per milligram of protein; the “Mean Uterine Weight” value is listed as 85.6 mg.

Take `c1ccc(C(c2ccccc2)(c2ccncc2)n2cncn2)cc1` [4-(diphenyl-1H--1,2,4-triazole-1-ylmethyl)pyridine]: the concentration for a half-maximal effect (EC50) in experiment [1] turned out to be 0.16 µM.

Consider `CCOc1ccccc1C(C)n1ccnc1` (centres unmarked) [1-[1-(2-ethoxyphenyl)ethyl]-1H--imidazole nitrate], for which the EC50 in experiment [1] is < 0.05 µM.

`Clc1ccc(Cn2ccnc2)cc1` [1-(4-chlorobenzyl)-1H--imidazole] yielded an EC50 in experiment [1] of 0.14 µM.

`Fc1ccc(C(c2ccccc2)(c2ccc(F)cc2)n2cncn2)cc1` [1-[bis(4-fluorophenyl)phenylmethyl]-1H--1,2,4-triazole] returned an EC50 in experiment [1] of 0.08 µM.

In the case of `Fc1ccc(C(c2ccc(Br)cc2)n2cncn2)cc1` (centres unmarked) [1-[(4-bromophenyl)(4-fluorophenyl)methyl]-1H--1,2,4-triazole], in experiment [1], the EC50 is < 0.05 µM.

Turning to `c1ccc(C(c2ccccc2)(c2ccccc2)n2cncn2)cc1` [1-trityl-1H--1,2,4-triazole], in experiment [1], the EC50 is 0.31 µM.

The molecule `Fc1ccc(C(c2ccc(F)cc2)n2cncn2)cc1` [1-[bis(4-fluorophenyl)methyl]-1H--1,2,4-triazole] returned an EC50 in experiment [1] of 0.094 µM.
